From ChEMBL document CHEMBL3407359, “(3Z)-3-(2-[4-(aryl)-1,3-thiazol-2-yl]hydrazin-1-ylidene)-2,3-dihydro-1H-indol-2-one derivatives as dual inhibitors of HIV-1 reverse transcriptase” (Eur J Med Chem, 2015)

Key:
[1] = molecular target: T1, Human immunodeficiency virus type 1 reverse transcriptase (Human immunodeficiency virus 1, UniProt Q72547); assay: Inhibition of HIV1 reverse transcriptase-associated DNA polymerase-independent RNase H activity after 1 hr
[2] = molecular target: T1, Human immunodeficiency virus type 1 reverse transcriptase; assay: Inhibition of HIV1 reverse transcriptase-associated RNA-dependent DNA polymerase activity after 30 mins
[3] = molecular target: Human immunodeficiency virus type 1 reverse transcriptase (Human immunodeficiency virus 1) (UniProt Q72547); assay: Specificity index, ratio of IC50 for HIV1 reverse transcriptase-associated DNA polymerase-independent RNase H activity to IC50 for HIV1 reverse transcriptase-associated RNA-dependent DNA polymerase activity
[4] = molecular target: T2, Human immunodeficiency virus type 1 reverse transcriptase (Human immunodeficiency virus 1, UniProt Q72547, K103N)
Description: Inhibition of HIV1 reverse transcriptase Lys103Asn mutant-associated DNA polymerase-independent RNase H activity after 1 hr

[5] = molecular target: T3, Human immunodeficiency virus type 1 reverse transcriptase (Human immunodeficiency virus 1, UniProt Q72547, Y181C)
Description: Inhibition of HIV1 reverse transcriptase Tyr181Cys mutant-associated DNA polymerase-independent RNase H activity after 1 hr

[6] = Metal chelating activity of the compound assessed as magnesium ion complex formation by UV-vis spectrometric analysis; assay type: physicochemical
[7] = molecular target: T2, Human immunodeficiency virus type 1 reverse transcriptase; remark: listed apart in the source
Description: Inhibition of HIV1 reverse transcriptase Lys103Asn mutant-associated RNA-dependent DNA polymerase activity after 30 mins

[8] = molecular target: T3, Human immunodeficiency virus type 1 reverse transcriptase; remark: listed apart in the source
Description: Inhibition of HIV1 reverse transcriptase Tyr181Cys mutant-associated RNA-dependent DNA polymerase activity after 30 mins

Structure (SMILES)	IC50 [1] [µM]	IC50 [2] [µM]	Ratio IC50 [3]	IC50 [4] [µM]	IC50 [5] [µM]	Activity [6]	IC50 [7] [µM]	IC50 [8] [µM]
O=C1Nc2ccccc2/C1=N/Nc1nc(-c2ccc([N+](=O)[O-])cc2)cs1	2.9	34	0.08					
O=C1Nc2ccccc2/C1=N/Nc1nc(-c2ccc(Br)cc2)cs1	14.9	81	0.18					
O=C1Nc2ccccc2/C1=N/Nc1nc(-c2ccc(F)cc2F)cs1	2.6	18.5	0.14					
O=C1Nc2ccccc2/C1=N/Nc1nc(-c2ccc(-c3ccccc3)cc2)cs1	2.5	22	0.11	3.42	2.7	Not Active	18.8	15.4
O=C1Nc2ccccc2/C1=N/Nc1nc(-c2ccc(Cl)cc2)cs1	10.6	20	0.53					
O=C1Nc2ccccc2/C1=N/Nc1nc(-c2ccccc2)cs1	100	71.6	1.3					
COc1ccc(-c2csc(N/N=C3\C(=O)Nc4ccccc43)n2)cc1	4.7	26	0.18					
Cc1ccc(-c2csc(N/N=C3\C(=O)Nc4ccccc43)n2)cc1	9	45	0.2					
O=C1Nc2ccccc2/C1=N/Nc1nc(-c2cccc([N+](=O)[O-])c2)cs1	2.8	13	0.21					
O=C1Nc2ccccc2/C1=N/Nc1nc(-c2ccc(Cl)cc2Cl)cs1	3.9	19.5	0.2					
O=C1Nc2ccccc2/C1=N/Nc1nc(-c2ccc(F)cc2)cs1	6.4	23.9	0.26					
O=C1Nc2ccccc2/C1=N/Nc1nc(-c2ccc(O)c(O)c2)cs1	3.2	0.9	3.5			Not Active		
